Holding throughout (format): cell-based, mouse
Assay [1] concerns embryoid body cultures from E14Tg2A cells. Put plainly: Osteoblast differentiation, real time RT-PCR of osteoblast marker mRNA. The settings on record: day 31 cultures. As to the method:
Two days afterwards, the droplets containing EBs were collected by adding medium to the cover and equally distributed onto 2 gelatinized (precoated with 0.1% gelatin) 100 mm petri dishes. Without treating with ATRA, the attached EBs were incubated in the induction medium containing 10^−7 M insulin and 2×10^−9 M T3 for 5 days.
After that, 0.3 mM of ascorbic acid phosphate (magnesium salt, Waco Chemicals, Dallas, Tex.) and 10 mM of β-glycerophosphate (Sigma-Aldrich Chemicals, St. Louis, Mo.) were added to the induction medium for an additional 9 days. At day 14, cultures were trypsinized to remove the cells and plated on to gelatin-coated 6-well culture plates at a density of 10^4 cells/cm^2. Three days after, at day 17, DEX at 10^−8 M was added to some of the wells to further induce osteoblast differentiation. Medium was replaced every 2 days throughout the culture period.
The cultures were terminated 2 weeks after at day 31 and stained for alkaline phosphatase (ALP) activity using a kit from Sigma following manufacturer's procedure (procedure No. 85). In this procedure, cells containing ALP activity, an osteoblast maker, appear in blue color. […]

Assay [2] concerns fully differentiated and induced cells (adipocytes from MESC). Put plainly: Hormone induced lipolysis (glycerol release into medium). The settings on record: 4 hr in glucose-free DMEM; isoproterenol increasing concentrations; dibutyryl-cAMP 10^-3 M; forskolin 4×10^-5 M. The protocol:
FIG. 4. Hormone induced lipolysis. Fully differentiated and induced cells were treated with increasing concentrations of isoproterenol in glucose-free DMEM containing 30 mg/ml of fatty acid free albumin and adenosine deaminase (1 U/ml) for 4 hr. The control samples were incubated with 10^−5 M N-(2-phenylisopropyl)-adenosine to replace the endogenous adenosine. The amount of glycerol in the medium was measured using a calorimetric kit. Differentiated and induced cells incubated with isoproterenol in 35 mm wells. B. Differentiated cells with or without induction cultures were incubated with 10^−3 M dibutyryl-cAMP or 4×10^−5 M forskolin in 60 mm diameter culture plates.

In another assay the test system is MESC. The assay can be described thus: ATRA effects on growth of MESC (Alamar blue cell proliferation). The settings on record: ATRA 10^-6 M for three days, vs 0.1% DMSO vehicle, 500 cells/well. As to the method: (§1) Mouse embryonic stem (ES) cells were used as the source of embryoid bodies (EBs). E14Tg2A cells were trypsinized and made into suspension in Glasgow Minimum essential medium containing 10% fetal bovine serum (growth medium). Cells were counted under a microscope using a haemocytometer, and were diluted to a concentration on 10^5 cells/mi. During cell passages, 1000 U/ml of leukemia inhibitory factor (LIF) was added to prevent differentiation.
FIG. 1. ATRA effects on growth of MESC. Cells were plated at 500/well in a 96-well culture plate. Starting on day 1, they were treated with ATRA (10^−6 M) for three days with replacement of fresh media each day. Control samples were treated with 0.1% DMSO (vehicle). At each indicated day, Alamar blue (10 μl/0.1 ml), an indicator for cell proliferation detection, was added to each well and the fluorescence generated was read after 4 hours.

Assay [3] deals with embryoid bodies from E14Tg2A embryonic stem cells. Put plainly: Differentiation of adipocytes from embryoid bodies (oil-red-O staining, morphology). The settings on record: ATRA treated vs vehicle treated cultures, same differentiation process. As to the method: as §1
To make EBs, cell suspensions after trypsinization were made into hanging droplets (20 μl) onto the cover of a bacteriological petri dish. The bottom of the dish was filled with PBS.
20 μl droplets of cells in suspension were pipetted onto the cover of a 100 mm bacteriological petri dish. […]
Two days afterwards, the droplets containing EBs were collected by adding medium to the cover and equally distributed onto 2 gelatinized (precoated with 0.1% gelatin) 100 mm petri dishes. […] After treating the cells for 8 days, cells were removed from the dish, counted with a hemocytometer and plated onto gelatinized 6-well culture plates at 10^4/cm^2. […]
ATRA treated cultures and vehicle treated control cultures underwent the same differentiation process as described in the Methods. […] The relative mass of specific RNA was calculated by the comparative cycle of threshold detection method according to the manufacturer's instruction. […]

The next assay relates to Differentiated MESC. The assay can be described thus: Gene expression profile by Taqman real time PCR in differentiated MESC. As to the method: Two days afterwards, the droplets containing EBs were collected by adding medium to the cover and equally distributed onto 2 gelatinized (precoated with 0.1% gelatin) 100 mm petri dishes. The attached EBs were treated with 10^−6 M ATRA (all-trans retinoic acid) for 3 days to initiate differentiation. Medium was then changed into growth medium with 10^−7 M insulin and 2×10^−9 M of triiodothyronine (T3) (induction medium) to continue adipocyte differentiation. Medium was changed every two days. At day 10, further stimulation of induction was made by the addition of an induction cocktail [0.5 mM isobutylmethylxanthine (IBMX), 0.1 μM dexamethasone (DEX) and 1 μM of insulin]. After treating the cells for 8 days, cells were removed from the dish, counted with a hemocytometer and plated onto gelatinized 6-well culture plates at 10^4/cm^2. Cells with minute lipid droplets (adipocytes) appeared in two days. The number of the adipocytes and the size of droplets increased over time and reached a plateau at day 10.
ATRA treated cultures and vehicle treated control cultures underwent the same differentiation process as described in the Methods. […] Total RNA was extracted, and reverse-transcribed. The relative mass of specific RNA was calculated by the comparative cycle of threshold detection method according to the manufacturer's instruction. Two independent experiments were performed using different RNA preparations from the cultures; each run of PCR was conducted in triplicate. The expression of adipocyte markers was increased while some of the osteoblast markers were decreased.

Turning to `C[C@@H]1C[C@H]2[C@@H]3CCC4=CC(=O)C=C[C@]4(C)[C@@]3(F)[C@@H](O)C[C@]2(C)[C@@]1(O)C(=O)CO` [DEX, dexamethasone], in assay [1], the “increase in expression of ALP mRNA” value is on record as about 2 fold and the “increase in expression of osteocalcin mRNA” value is recorded as 8 fold.

Regarding `CC(C)NCC(O)c1ccc(O)c(O)c1` (stereo not shown) [isoproterenol], the “glycerol release (lipolysis)” value in assay [2] is “dose-dependent increase of glycerol release”.

As to `CCCC(=O)Nc1ncnc2c1ncn2[C@@H]1O[C@@H]2COP(=O)(O)O[C@H]2[C@H]1OC(=O)CCC` [dibutyryl-cAMP], the “glycerol release (lipolysis)” value in assay [2] is “dose-dependent increase of glycerol release”.

Consider `CC1=C(/C=C/C(C)=C/C=C/C(C)=C/C(=O)O)C(C)(C)CCC1` [ATRA, all-trans retinoic acid], for which the “cell number (Alamar blue fluorescence)” value in the assay with MESC is on record as “significant lowering of the cell number was only seen at day 3”. The “formation of adipocytes at end of culture” value in assay [3] is “formed numerous fully differentiated adipocytes”. In addition, in the assay on Differentiated MESC (adipocyte marker), the “ALBP expression, Fold Change (ATRA/Control)” value is “+53.2 ± 0.09 fold”; the “HSL expression, Fold Change (ATRA/Control)” value was “+2.39 ± 0.17 fold”; the “PPAR-γ expression, Fold Change (ATRA/Control)” value is recorded as “+1.72 ± 0.42 fold”. Moreover, in the assay on Differentiated MESC (osteoblast marker), the “ALP expression, Fold Change (ATRA/Control)” value is −2.54 ± 0.03 fold; the “Collagen type 1α expression, Fold Change (ATRA/Control)” value is listed as “+6.27 ± 0.26 fold”; the “Osteocalcin expression, Fold Change (ATRA/Control)” value is given as −5.28 ± 0.05 fold; the “Osteonectin expression, Fold Change (ATRA/Control)” value is given as “+2.02 ± 0.25 fold”.

For the origin of these results see patent US20070128727A1, “Methods for differentiation of embryonic stem cells” (priority 2005, published 2007).
